Data from patent US20200179269A1, “VAPORIZABLE COMPOSITIONS COMPRISING CANNABINOL” (KANABO RESEARCH LTD., priority 2017, published 2020).

System: Loss of Righting Reflex (LORR) in mice
Experiment: Sleep induction model in mice: Loss of Righting Reflex (LORR) after Pentobarbital, sleep latency and sleep duration
Type: in vivo, mice BALB/c
Parameters: Sleep latency median / Sleep latency (mean) / Sleep duration median / Sleep duration (mean): unit not given here
Source text: The objective of the present study is to evaluate various cannabinoid mixtures with terpenes in the sleep induction model in mice and then in the second part optimize the doses.
Study Variables and End Points • Mortality and morbidity—once a day. • Body weight—during acclimation and before dosing. • Behavioral test—righting reflex—sleep latency and duration
The principle of the study is based on the ability of sleep promoting agents to shorten the time until Loss of Righting Reflex (LORR) occurs and prolong the presence of LORR in rodents treated with established anesthetizing agent.
Mice were be utilized and divided into 62 groups of three in each group.
Combinations of 3 different cannabinoids: CBN, CBD and THC and 2 terpenes: (β-myrcene and linalool were tested. Diazepam (2 mg/kg) was used as a positive control. Ethanol:Cremophor:Saline (1:1:18) was used as negative control. The items were dissolved in Ethanol:Cremophor:Saline. The items, positive and negative controls were IP injected. Three (or four) mice were used for each group. 5 cycles of experiments were performed. In Cycles 1 each cannabinoid at different concentrations was separately administered; in Cycle 2—combinations of the cannabinoids with different concentration were administered (4 mice per group were used for items), in Cycle 3—different terpenes at different concentration were administered, in Cycle 4—combinations of different cannabinoids and terpenes were administered and in Cycle 5—compositions with high content of cannabinoids and low content of terpenes were tested (4 mice per group).
Female mice BALB/c strain of 7 weeks age were used for the experiment. The mice were allowed to acclimatize for at least 5 days. Animals were fed ad libitum a commercial rodent diet (Teklad Certified Global 18% Protein Diet, Harlan cat #2018). Animals had free access to sterilized and acidified drinking water (pH between 2.5 and 3.5) obtained from the municipality supply. Animals were housed under standard laboratory conditions, air conditioned and filtered (HEPA F6/6) with adequate fresh air supply (Minimum 15 air changes/hour). Animals were kept in a climate controlled environment. Temperatures range were 18-24° C. and relative humidity range 30-70% with a 12 hours light and 12 hours dark cycle (6 AM/6 PM).
The duration of the study was one day per cycle. The study was conducted in five cycles (see Tables 10-15). Each Test Item or vehicle formulation was administrated to three (or four) animals per group. Morbidity and mortality was checked once a day.
Sleeping Test was performed according to Pharmaseed's SOP No. 130: “Loss of Righting Reflex”. Mice were injected intraperitoneally (IP) with the positive control Diazepam (2 mg/kg, IP), vehicle or with the Test Items 30 minutes prior to Pentobarbital (40 mg/kg, IP) administration. Observation of the mouse begun immediately after administration of Pentobarbital. Once the mouse was asleep (the loss of righting reflex—LORR), it was be transferred to a home cage and placed on its back. Mice was considered awake when they could successfully upright themselves (all four feet in contact with the surface). Once a mouse righted itself, it was placed on its back once again and allowed to right a second time for confirmation. Expected sleep onset and duration of the negative control group was 5-8 min and 20-25 min, respectively. For positive control expected sleep onset and duration were 3-4 min and 40-50 min, respectively.
While the animals were asleep, fatty ophthalmic ointment (e.g. Duratears®) was be applied to their eyes to avoid drying of the eye. Also, since Diazepam might cause hypothermia, the cages with the sleeping mice were be placed on a heating pad.
The following parameters were be recorded and served as an index of sleep behavior: • Sleep latency—time required to sleep induction. • Sleep duration.
At termination, the animals were sacrificed by CO2 asphyxiation.

[1] = Cycle 1, high doses (above 5 mg/kg)
[2] = Cycle 4, group 43F, Diazepam 2 mg/kg

CCCCCc1cc(O)c2c(c1)OC(C)(C)[C@@H]1CCC(C)=C[C@@H]21 [THC, tetrahydrocannabinol]
state of the mice after awakening (Cycle 1): much more vivid after awakening | Sleep duration (mean) (Cycle 1, dose 0.5 mg/kg IP): (6) | Sleep duration median (Cycle 1, dose 0.5 mg/kg IP): 8 | Sleep latency (mean) (Cycle 1, dose 0.5 mg/kg IP): (4) | Sleep latency median (Cycle 1, dose 0.5 mg/kg IP): 4 | Sleep duration (mean) (Cycle 1, dose 2 mg/kg IP): (12) | Sleep duration median (Cycle 1, dose 2 mg/kg IP): 0 | Sleep latency (mean) (Cycle 1, dose 2 mg/kg IP): (20) | Sleep latency median (Cycle 1, dose 2 mg/kg IP): 20 | Sleep duration (mean) (Cycle 1, dose 5 mg/kg IP): (10) | Sleep duration median (Cycle 1, dose 5 mg/kg IP): 9 | Sleep latency (mean) (Cycle 1, dose 5 mg/kg IP): (25) | Sleep latency median (Cycle 1, dose 5 mg/kg IP): 24 | Sleep duration (mean) (Cycle 1, dose 10 mg/kg IP): (21) | Sleep duration median (Cycle 1, dose 10 mg/kg IP): 11 | Sleep latency (mean) (Cycle 1, dose 10 mg/kg IP): (11) | Sleep latency median (Cycle 1, dose 10 mg/kg IP): 11 | effect on sleep duration [1]: decreases the sleep duration | effect on sleep latency (time required for falling asleep) [1]: increases the sleep latency | effect on onset of sleep (Cycle 1, medium concentrations (2-5 mg/kg)): increases the onset of sleep | effect of addition to the combination of CBN, CBD and terpene (Cycle 4, 0.5 mg/kg): reduced the observed effect

CCCCCc1cc(O)c2c(c1)OC(C)(C)c1ccc(C)cc1-2 [CBN, 6,6,9-trimethyl-3-pentylbenzo[c]chromen-1-ol]
dose response for duration of sleep parameter (Cycle 1): moderate dose response | Sleep duration (mean) (Cycle 1, dose 0.1 mg/kg IP): (26) | Sleep duration median (Cycle 1, dose 0.1 mg/kg IP): 34 | Sleep latency (mean) (Cycle 1, dose 0.1 mg/kg IP): (5) | Sleep latency median (Cycle 1, dose 0.1 mg/kg IP): 4 | Sleep duration (mean) (Cycle 1, dose 0.5 mg/kg IP): (14) | Sleep duration median (Cycle 1, dose 0.5 mg/kg IP): 15 | Sleep latency (mean) (Cycle 1, dose 0.5 mg/kg IP): (8) | Sleep latency median (Cycle 1, dose 0.5 mg/kg IP): 8 | Sleep duration (mean) (Cycle 1, dose 2 mg/kg IP): (23) | Sleep duration median (Cycle 1, dose 2 mg/kg IP): 25 | Sleep latency (mean) (Cycle 1, dose 2 mg/kg IP): (6) | Sleep latency median (Cycle 1, dose 2 mg/kg IP): 6 | Sleep duration (mean) (Cycle 1, dose 5 mg/kg IP): (31) | Sleep duration median (Cycle 1, dose 5 mg/kg IP): 32 | Sleep latency (mean) (Cycle 1, dose 5 mg/kg IP): (9) | Sleep latency median (Cycle 1, dose 5 mg/kg IP): 8

C=CC(=C)CCC=C(C)C [Myrcene, β-myrcene]
Sleep duration (mean) (Cycle 3, Dose 20, IP): (8.7) | Sleep duration median (Cycle 3, Dose 20, IP): 9 | Sleep latency (mean) (Cycle 3, Dose 20, IP): (4.7) | Sleep latency median (Cycle 3, Dose 20, IP): 5 | Sleep duration (mean) (Cycle 3, Dose 100, IP): (7.3) | Sleep duration median (Cycle 3, Dose 100, IP): 7 | Sleep latency (mean) (Cycle 3, Dose 100, IP): (5) | Sleep latency median (Cycle 3, Dose 100, IP): 5 | Sleep duration (mean) (Cycle 3, Dose 300, IP): (61.3) | Sleep duration median (Cycle 3, Dose 300, IP): 31 | Sleep latency (mean) (Cycle 3, Dose 300, IP): (3) | Sleep latency median (Cycle 3, Dose 300, IP): 3 | dose response of the terpene in combination with CBN and CBD (Cycle 4): evident dose response | Sleep duration (mean) (Cycle 5, dose 10 mg/kg IP): (5) | Sleep duration median (Cycle 5, dose 10 mg/kg IP): 5 | Sleep latency (mean) (Cycle 5, dose 10 mg/kg IP): (5) | Sleep latency median (Cycle 5, dose 10 mg/kg IP): 5

C=C(C)[C@@H]1CCC(C)=C[C@H]1c1c(O)cc(CCCCC)cc1O [CBD, cannabidiol]
effect on sleeping (Cycle 1, 1 mg/kg dose): assisted in sleeping | Sleep duration (mean) (Cycle 1, dose 1 mg/kg IP): (14) | Sleep duration median (Cycle 1, dose 1 mg/kg IP): 9 | Sleep latency (mean) (Cycle 1, dose 1 mg/kg IP): (13) | Sleep latency median (Cycle 1, dose 1 mg/kg IP): 16 | Sleep duration (mean) (Cycle 1, dose 5 mg/kg IP): (49) | Sleep duration median (Cycle 1, dose 5 mg/kg IP): 49 | Sleep latency (mean) (Cycle 1, dose 5 mg/kg IP): (6) | Sleep latency median (Cycle 1, dose 5 mg/kg IP): 6 | Sleep duration (mean) (Cycle 1, dose 20 mg/kg IP): (48) | Sleep duration median (Cycle 1, dose 20 mg/kg IP): 48 | Sleep latency (mean) (Cycle 1, dose 20 mg/kg IP): (8) | Sleep latency median (Cycle 1, dose 20 mg/kg IP): 9 | Sleep duration (mean) (Cycle 1, dose 50 mg/kg IP): (84) | Sleep duration median (Cycle 1, dose 50 mg/kg IP): 68 | Sleep latency (mean) (Cycle 1, dose 50 mg/kg IP): (6) | Sleep latency median (Cycle 1, dose 50 mg/kg IP): 6

CN1C(=O)CN=C(c2ccccc2)c2cc(Cl)ccc21 [Diazepam, reference compound]
state of the mice after awakening (Cycle 1): remained dizzy for a prolonged period of time | Sleep duration (mean) (Cycle 1, dose 2 mg/kg IP): (94) | Sleep duration median (Cycle 1, dose 2 mg/kg IP): 94 | Sleep latency (mean) (Cycle 1, dose 2 mg/kg IP): (3) | Sleep latency median (Cycle 1, dose 2 mg/kg IP): 2 | Sleep duration (mean) (Cycle 2, dose 2 mg/kg IP): (51.7) | Sleep duration median (Cycle 2, dose 2 mg/kg IP): 56 | Sleep latency (mean) (Cycle 2, dose 2 mg/kg IP): (4.3) | Sleep latency median (Cycle 2, dose 2 mg/kg IP): 4 | Sleep duration (mean) (Cycle 3, Dose 2, IP): (66.3) | Sleep duration median (Cycle 3, Dose 2, IP): 60 | Sleep latency (mean) (Cycle 3, Dose 2, IP): (2.3) | Sleep latency median (Cycle 3, Dose 2, IP): 2 | Sleep duration (mean) [2]: (76) | Sleep duration median [2]: 69 | Sleep latency (mean) [2]: (3.3) | Sleep latency median [2]: 3

C=CC(C)(O)CCC=C(C)C (stereo not shown) [Linalool, linalool]
Sleep duration (mean) (Cycle 3, Dose 20, IP): (5.3) | Sleep duration median (Cycle 3, Dose 20, IP): 6 | Sleep latency (mean) (Cycle 3, Dose 20, IP): (5) | Sleep latency median (Cycle 3, Dose 20, IP): 5 | Sleep duration (mean) (Cycle 3, Dose 100, IP): (5.3) | Sleep duration median (Cycle 3, Dose 100, IP): 6 | Sleep latency (mean) (Cycle 3, Dose 100, IP): (5.5) | Sleep latency median (Cycle 3, Dose 100, IP): 5 | Sleep duration (mean) (Cycle 3, Dose 300, IP): (97.3) | Sleep duration median (Cycle 3, Dose 300, IP): 120 | Sleep latency (mean) (Cycle 3, Dose 300, IP): (2) | Sleep latency median (Cycle 3, Dose 300, IP): 2 | dose response of the terpene in combination with CBN and CBD (Cycle 4): evident dose response | Sleep duration (mean) (Cycle 5, dose 10 mg/kg IP): (6) | Sleep duration median (Cycle 5, dose 10 mg/kg IP): 6.5 | Sleep latency (mean) (Cycle 5, dose 10 mg/kg IP): (8) | Sleep latency median (Cycle 5, dose 10 mg/kg IP): 8
